From the supplement of paper PMC10307832

Legend:
Assay in all cases: relative viability (nuclei count vs DMSO), 5 days (fraction); higher = more cells survive
[1] = compound: C=CCNC1=C2C[C@@H](C)C[C@H](OC)[C@H](O)[C@@H](C)/C=C(\C)[C@H](OC(N)=O)[C@@H](OC)/C=C\C=C(/C)C(=O)NC(=CC1=O)C2=O [17-AAG] + N=C(N)NC(=N)NCCc1ccccc1 [Phenformin] (partner 250 µM)
In short: (§1)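 A single step with final 0.05% Triton X-100, 1% formaldehyde and 1 ug/ml Hoechst fixed the cells and stained nuclei 5 days after treatment. Lung cancer cell lines in 1536-well plates had been treated by pin tool the day after seeding with one drug alone or a fixed anchor-drug dose plus five library-drug doses (not always all listed) in √10 steps, and nuclei were counted on 4× images. Relative viability is the ratio of nuclei in treated wells to nuclei in vehicle wells, taken as the median of duplicate plates.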

[2] = compound: C=CCNC1=C2C[C@@H](C)C[C@H](OC)[C@H](O)[C@@H](C)/C=C(\C)[C@H](OC(N)=O)[C@@H](OC)/C=C\C=C(/C)C(=O)NC(=CC1=O)C2=O [17-AAG] + CC(=O)Nc1cccc(-n2c(=O)n(C3CC3)c(=O)c3c(Nc4ccc(I)cc4F)n(C)c(=O)c(C)c32)c1 [Trametinib] (partner 0.02 µM)
In short: as §1

[3] = compound: C=CCNC1=C2C[C@@H](C)C[C@H](OC)[C@H](O)[C@@H](C)/C=C(\C)[C@H](OC(N)=O)[C@@H](OC)/C=C\C=C(/C)C(=O)NC(=CC1=O)C2=O [17-AAG] + COc1cccc2cc(-c3nc([C@H]4CC[C@H](C(=O)O)CC4)n4ncnc(N)c34)[nH]c12 [OSI-027] (partner 0.5 µM)
In short: as §1

[4] = compound: C=CCNC1=C2C[C@@H](C)C[C@H](OC)[C@H](O)[C@@H](C)/C=C(\C)[C@H](OC(N)=O)[C@@H](OC)/C=C\C=C(/C)C(=O)NC(=CC1=O)C2=O [17-AAG] + C[C@@H](Oc1cc(-c2cnn(C3CCNCC3)c2)cnc1N)c1c(Cl)ccc(F)c1Cl [Crizotinib] (partner 1 µM)
In short: as §1

Cell Line | relative viability ([1]; first compound 0.00128 µM) | relative viability ([1]; first compound 0.004048 µM) | relative viability ([1]; first compound 0.0128 µM) | relative viability ([1]; first compound 0.04048 µM) | relative viability ([1]; first compound 0.128 µM) | relative viability ([2]; first compound 0.00128 µM) | relative viability ([2]; first compound 0.004048 µM) | relative viability ([2]; first compound 0.0128 µM) | relative viability ([2]; first compound 0.04048 µM) | relative viability ([2]; first compound 0.128 µM) | relative viability ([3]; first compound 0.00128 µM) | relative viability ([3]; first compound 0.004048 µM) | relative viability ([3]; first compound 0.0128 µM) | relative viability ([3]; first compound 0.04048 µM) | relative viability ([3]; first compound 0.128 µM) | relative viability ([4]; first compound 0.00128 µM) | relative viability ([4]; first compound 0.004048 µM) | relative viability ([4]; first compound 0.0128 µM) | relative viability ([4]; first compound 0.04048 µM) | relative viability ([4]; first compound 0.128 µM)
NCI-H3122 | 0.396 | 0.329 | 0.129 | 0.118 | 0.117 | 0.23 | 0.283 | 0.173 | 0.177 | 0.106 | 0.713 | 0.169 | 0.126 | 0.12 | 0.114 | 0.285 | 0.258 | 0.233 | 0.246 | 0.173
PC-3 [JPC-3] | 0.481 | 0.472 | 0.485 |  | 0.468 | 0.681 | 0.711 | 0.68 | 0.472 | 0.551 | 0.729 | 0.787 | 0.851 |  | 0.653 | 0.956 | 0.99 | 0.833 |  | 0.91
PC-14 | 0.449 | 0.44 | 0.126 | 0.123 | 0.109 | 0.619 | 0.111 | 0.0838 | 0.101 | 0.0786 | 0.803 | 0.289 | 0.0511 | 0.0734 | 0.0603 | 0.944 | 0.855 | 0.732 | 0.176 | 0.124
RERF-LC-KJ | 0.535 | 0.489 | 0.321 | 0.268 | 0.27 | 0.837 | 0.864 | 0.737 | 0.404 | 0.244 | 0.62 | 0.637 | 0.231 | 0.268 | 0.22 | 0.894 | 0.831 | 0.901 | 0.616 | 0.232
SK-LU-1 | 0.484 | 0.214 | 0.119 | 0.116 | 0.0908 | 0.436 | 0.473 | 0.217 | 0.195 | 0.216 | 0.342 | 0.17 | 0.102 | 0.0747 | 0.0783 | 0.888 | 0.435 | 0.242 | 0.232 | 0.176
SK-MES-1 | 0.697 | 0.561 | 0.389 | 0.202 | 0.194 | 0.562 | 0.401 | 0.221 | 0.179 | 0.168 | 0.597 | 0.426 | 0.127 | 0.136 | 0.134 | 1.02 | 1.01 | 0.822 | 0.224 | 0.144
SW 1573 | 0.34 | 0.257 | 0.123 | 0.145 | 0.1 | 0.589 | 0.381 | 0.161 | 0.117 | 0.0829 | 0.639 | 0.444 | 0.163 | 0.108 | 0.091 | 0.764 | 0.872 | 0.687 | 0.167 | 0.106
UMC-11 | 0.297 | 0.292 | 0.249 | 0.223 | 0.19 | 0.672 | 0.773 | 0.629 | 0.234 | 0.145 | 0.469 | 0.512 | 0.255 | 0.233 | 0.202 | 0.717 | 0.58 | 0.399 | 0.148 | 0.0804
